These results are taken from patent US20130079345A1, “[…] ACTIVE DISUBSTITUTED TRIAZINE DERIVATIVES” (BAYER INTELLECTUAL PROPERTY GMBH, priority 2010, published 2013).

Molecules are shown by their SMILES. pIC50: −log10 of the molar value. Where a name gives a salt, the structure may show the parent alone.

The target of the first test is T1, CDK9/CycT1 (Homo sapiens, UniProt P50750).
T1 construct: Recombinant full-length His-tagged human CDK9 and CycT1; His; purchased Invitrogen PV4131; host or cells: insect cells
T1 sequence (P50750 whole entry): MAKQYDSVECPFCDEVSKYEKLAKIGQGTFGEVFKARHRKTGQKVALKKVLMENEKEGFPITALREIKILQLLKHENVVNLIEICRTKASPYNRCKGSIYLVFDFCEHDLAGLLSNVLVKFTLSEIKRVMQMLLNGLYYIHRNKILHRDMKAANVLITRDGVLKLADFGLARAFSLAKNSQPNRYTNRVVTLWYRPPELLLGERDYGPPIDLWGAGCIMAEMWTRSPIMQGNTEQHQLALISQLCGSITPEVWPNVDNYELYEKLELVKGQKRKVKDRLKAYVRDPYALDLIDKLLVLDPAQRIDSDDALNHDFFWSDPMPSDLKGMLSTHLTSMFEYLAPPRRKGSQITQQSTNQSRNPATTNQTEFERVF
T1 sequence (O60563 whole entry partner): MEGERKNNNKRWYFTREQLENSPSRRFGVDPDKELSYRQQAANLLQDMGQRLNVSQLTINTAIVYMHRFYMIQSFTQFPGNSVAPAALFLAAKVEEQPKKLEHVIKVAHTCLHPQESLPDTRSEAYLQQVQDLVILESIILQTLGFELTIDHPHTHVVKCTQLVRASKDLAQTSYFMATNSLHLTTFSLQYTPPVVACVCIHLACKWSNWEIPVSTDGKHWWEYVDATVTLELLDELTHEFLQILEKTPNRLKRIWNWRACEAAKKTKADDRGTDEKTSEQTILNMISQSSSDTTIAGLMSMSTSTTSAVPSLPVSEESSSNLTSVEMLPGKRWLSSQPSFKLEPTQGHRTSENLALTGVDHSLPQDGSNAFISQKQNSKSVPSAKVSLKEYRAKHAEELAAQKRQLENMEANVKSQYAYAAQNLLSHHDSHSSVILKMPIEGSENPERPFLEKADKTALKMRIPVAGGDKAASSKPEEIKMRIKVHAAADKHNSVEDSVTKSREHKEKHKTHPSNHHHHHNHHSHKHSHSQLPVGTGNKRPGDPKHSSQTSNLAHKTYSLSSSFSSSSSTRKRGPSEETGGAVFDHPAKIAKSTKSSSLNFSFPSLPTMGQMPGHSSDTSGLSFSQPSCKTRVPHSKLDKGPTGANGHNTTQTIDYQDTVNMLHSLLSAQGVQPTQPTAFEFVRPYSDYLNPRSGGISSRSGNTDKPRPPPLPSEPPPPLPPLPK
The experiment in a line: CDK9/CycT1 kinase assay (TR-FRET). The format is biochemical. The settings on record: ATP 10 μM, values given in μM. The text has this:
CDK9/CycT1-inhibitory activity of compounds of the present invention was quantified employing the CDK9/CycT1 TR-FRET assay as described in the following paragraphs.
Recombinant full-length His-tagged human CDK9 and CycT1, expressed in insect cells and purified by Ni-NTA affinity chromatography, were purchased from Invitrogen (catalogue number PV4131). A biotinylated peptide biotin-Ttds-[…] (C-terminus in amide form), which can be purchased from e.g the company JERINI Peptide Technologies (Berlin, Germany), was used as a substrate for the kinase reaction.
For the assay, 50 nl of a 100-fold concentrated solution of the test compound in DMSO was pipetted into a well of a black low-volume 384-well microtiter plate (Greiner Bio-One, Frickenhausen, Germany), 2 μl of a solution of CDK9/CycT1 in aqueous assay buffer [50 mM Tris/HCl pH 8.0], 10 mM MgCl2, 1.0 mM dithiothreitol, 0.1 mM sodium ortho-vanadate, 0.01% (v/v) Nonidet-P40 (Sigma)] were added. The mixture was incubated at 22° C. for 15 min to allow pre-binding of the test compounds to the enzyme before the start of the kinase reaction. […] The resulting mixture was incubated at 22° C. for a reaction time of 25 minutes. The concentration of CDK9/CycT1 was adjusted depending of the activity of the enzyme lot and was chosen appropriately for measurements in the linear range of the assay. Typical concentrations were in the range of 1 μg/ml. The reaction was stopped by the addition of 5 μl of a solution of TR-FRET detection reagents (0.2 μM streptavidine-XL and 1 nM anti-RB(pSer807/pSer811)-antibody from BD Pharmingen [#558389] and 1.2 nM LANCE EU-W1024 labeled anti-mouse IgG antibody [Perkin-Elmer, product no. AD0077]) in an aqueous EDTA-solution (100 mM EDTA, 0.2% (w/v) bovine serum albumin in 100 mM HEPES/NaOH, pH 7.0).
The resulting mixture was incubated at 22° C. for one hour to allow the formation of a complex between the phosphorylated biotinylated peptide and the detection reagents. Subsequently, the amount of phosphorylated substrate was evaluated by measurement of the resonance energy transfer from the Eu-chelate to the streptavidine-XL. Therefore, the fluorescence emissions at 620 nm and 665 nm after excitation at 350 nm were measured in a HTRF reader, e.g. a Rubystar (BMG Labtechnologies, Offenburg, Germany) or a Viewlux (Perkin-Elmer). The ratio of the emissions at 665 nm and at […] was taken as a measure for the amounts of phosphorylated substrate. The data were normalised, i.e. enzyme reaction without inhibitor corresponds to 0% inhibition, and all other assay components in the absence of the enzyme correspond to 100% inhibition. IC50 values were calculated by a 4-parameter fit using in-house software.
(In general: TR-FRET usually uses a lanthanide donor and a delayed reading to cut background.)
A word on the IC50: it is the concentration that gives 50% inhibition. A low value points to greater potency. As for `N#Cc1cc(F)ccc1-c1ncnc(Nc2cccc(CS(N)(=O)=O)c2)n1` [Compound U3, 1-(3-{[4-(2-cyano-4-fluorophenyl)-1,3,5-triazin-2-yl]amino}phenyl)methanesulfonamide], the IC50 is 3.3 µM.

Staying with this test, now noted: ATP 10 μM, values in nM.
Compound `COc1cc(F)ccc1-c1ncnc(Nc2cccc(CS(N)(=O)=O)c2)n1` [B2′, 1-(3-{[4-(4-fluoro-2-methoxyphenyl)-1,3,5-triazin-2-yl]amino}phenyl)methanesulfonamide hydrochloride] registered an IC50 of 0.014 µM.
Still for that read-out and setting: in the case of `CC(C)Oc1cc(F)ccc1-c1ncnc(Nc2cccc(CS(N)(=O)=O)c2)n1` [Compound U2, 1-[3-({4-[4-fluoro-2-(propan-2-yloxy)phenyl]-1,3,5-triazin-2-yl}amino)phenyl]methanesulfonamide] it was 0.028 µM.
As for `NS(=O)(=O)Cc1cccc(Nc2ncnc(-c3ccccc3Oc3ccccc3)n2)c1` [Compound B14, 1-(3-{[4-(2-phenoxyphenyl)-1,3,5-triazin-2-yl]amino}phenyl)methanesulfonamide], the IC50 turned out to be 0.062 µM.
The same measure, in the same setting: in the case of `CNS(=O)(=O)Cc1cccc(Nc2cc(-c3ccccc3OC)ncn2)c1` [Ref2, C-{3-[6-(2-Methoxy-phenyl)-pyrimidin-4-ylamino]-phenyl}-N-methyl methanesulfonamide, reference compound] it was 0.04 µM; in that of `COc1ccccc1-c1ncnc(Nc2cccc(CS(N)(=O)=O)c2)n1` [Compound B1, 3-[(4-(2-Methoxyphenyl)-1,3,5-triazin-2-yl)amino]benzenemethanesulfonamide], 0.021 µM; in that of `COc1ccccc1-c1cc(Nc2cccc(CS(=O)(=O)N(C)C)c2)ncn1` [Ref4, C-{3-[6-(2-Methoxy-phenyl)-pyrimidin-4-ylamino]-phenyl}-N,N-dimethylmethanesulfonamide, reference compound], 0.049 µM.
The same measure, in the same setting: the figure for `NS(=O)(=O)Cc1cccc(Nc2ncnc(-c3ccccc3OCc3ccccc3)n2)c1` [Compound B13, 3-[(4-(2-Benzyloxyphenyl)-1,3,5-triazin-2-yl)amino]benzenemethanesulfonamide] is 0.0032 µM; for `COc1cc(F)ccc1-c1ncnc(Nc2cccc(CS(N)(=O)=O)c2)n1` [Compound B2, 3-[(4-(4-Fluoro-2-methoxyphenyl)-1,3,5-triazin-2-yl)amino]benzenemethanesulfonamide] it is 0.0081 µM; for `COc1cc(F)c(F)cc1-c1ncnc(Nc2cccc(CS(N)(=O)=O)c2)n1` [Compound U7, 1-(3-{[4-(4,5-difluoro-2-methoxyphenyl)-1,3,5-triazin-2-yl]amino}phenyl)methanesulfonamide] it is 0.014 µM.
`COc1cc(F)ccc1-c1ncnc(Nc2ccc(S(C)(=O)=O)nc2)n1` [Compound U8, 4-(4-fluoro-2-methoxyphenyl)-N-[6-(methylsulfonyl)pyridin-3-yl]-1,3,5-triazin-2-amine]: the IC50 came to 0.32 µM.

The test system of a further test is MDAMB468 cells. The experiment in a line: Cell viability assay, MDAMB468 cells. The format is cell-based. The settings on record: Homo sapiens, MDA-MB-468, 72 h, Cell Titer Glo. How it is done: HeLa- or MDAMB468-Cells or MATU ADR, H460, DU145, CACO-2 or B16F10 cells were maintained in RPMI 1640 or McCoy's 5A cell culture medium+glutamine (PAN Biotech GmbH, Aidenbach, Germany; order no. P04-22100; P04-05500) supplemented with 10% fetal calf serum “Gold” (PAA Laboratories GmbH, Pasching, Austria; order no. A15-151) and grown at 37° C., 5% CO2. For the cell viability assay, cells were seeded with a density of 400 (Hela cells, DSMZ Braunschweig order no. ACC57) or 800 (MDAMB468 cells, ATCC order no. HTB-132) per well in 25 μL in 384-well plates (Greiner Bio-One, Frickenhausen, Germany; order no. 781080). After overnight incubation at 37° C./5% CO2, 25 nL or 75 nL compound were added to each sample well by using BIOMEK FXP Laboratory Automation Workstation (Beckman Coulter, USA). Wells with cells and 0.1% or 0.3% DMSO in culture medium were used as positive controls, wells with cells and 10 μM staurosporine in culture medium were used as negative controls. The cells were incubated with the compounds for 72 h at 37° C./5% CO2. For measurement of cell viability […] Cell Titer Glo reagent (Promega, Madison, USA; order no. G7573), 1:2 diluted with cell culture medium, was added to each well. The 384well-plates were placed for 2 min on an orbital microplate shaker and incubated for further 10 min at room temperature to stabilize the luminescence signal. Luminescence was measured by Envision Plate Reader (Perkin Elmer, USA). EC50 values were calculated with the software Excel Fit (IDBS, Guildford, UK) from 3-fold dilution series comprising at least 8 concentrations in duplicates.
A word on the pIC50: it is the IC50 on a negative log10 scale, so that one unit is a factor of ten. Lower therefore signals a high IC50. The compound `COc1ccccc1-c1ncnc(Nc2ccccc2)n1` [Compound P1, 4-(2-Methoxyphenyl)-N-phenyl-1,3,5-triazine-2-amine] gave a pIC50 of 4.88.
Consider `COc1ccccc1-c1ncnc(Nc2cccc(S(N)(=O)=O)c2)n1` [C1′, 3-[(4-(2-Methoxyphenyl)-1,3,5-triazin-2-yl)amino]benzenesulfonamide trifluoroacetic acid salt], for which the pIC50 was 6.10.
`CCCS(=O)(=O)Nc1cccc(Nc2ncnc(-c3ccccc3OC)n2)c1` [Compound L1, N-[3-((4-(2-Methoxyphenyl)-1,3,5-triazin-2-yl)amino)phenyl]-propanesulfonamide] had a pIC50 of 5.35.
Still for that read-out and setting: the figure for `COc1ccccc1-c1ncnc(Nc2cccc([N+](=O)[O-])c2)n1` [Compound H1, 4-(2-Methoxyphenyl)-N-(3-nitrophenyl)-1,3,5-triazine-2-amine] is 6.08; for `COc1ccccc1-c1ncnc(Nc2cccc(CS(N)(=O)=O)c2)n1` [B1′, 3-[(4-(2-Methoxyphenyl)-1,3,5-triazin-2-yl)amino]benzenemethanesulfonamide trifluoroacetic acid salt] it is 5.52.
Same read-out and setting: in the case of `COc1ccccc1-c1ncnc(Nc2cccc(CCS(N)(=O)=O)c2)n1` [Compound D1, 2-[3-((4-(2-Methoxyphenyl)-1,3,5-triazin-2-yl)amino)phenyl]ethanesulfonamide] it was 5.34.
Still for that read-out and setting: the figure for `COc1cc(F)ccc1-c1ncnc(Nc2cccc(CS(N)(=O)=O)c2)n1` [Compound B2, 3-[(4-(4-Fluoro-2-methoxyphenyl)-1,3,5-triazin-2-yl)amino]benzenemethanesulfonamide] is 6.38.
Consider `NS(=O)(=O)Cc1cccc(Nc2ncnc(-c3ccccc3OCc3ccccc3)n2)c1` [B13′, 3-[(4-(2-Benzyloxyphenyl)-1,3,5-triazin-2-yl)amino]benzenemethanesulfonamide trifluoroacetic acid salt], for which the negative-log IC50 (pIC50) is 6.80.
